In this test the test system is T1, rXylR.
T1 construct: gene XylR; mature GH10 xylanase, signal peptide (1-23) removed, N-terminal His6 tag (pET-28a(+)) kept; E. coli BL21; precursor 373 aa; mature N-terminus AEDTPEP by primer
Kind of test: p-nitrophenol release, Michaelis-Menten non-linear regression. The class given is biochemical, Duganella sp. PAMC 27433. The settings on record: 50 mM sodium phosphate pH 5.5, 40 °C; substrate 1-10 mM. An excerpt:
p-nitrophenol release, Michaelis-Menten non-linear regression on rXylR

This note sets out measurements from publication PMC8147214, “Identification and Characterization of a Novel, Cold-Adapted D-Xylobiose- and D-Xylose-Releasing Endo-β-1,4-Xylanase from an Antarctic Soil Bacterium, Duganella sp. PAMC 27433” (Biomolecules, 2021).

The Km is the substrate concentration at which the rate is half of its maximum.

In the case of `O=[N+]([O-])c1ccc(O[C@@H]2O[C@H](CO)[C@@H](O[C@@H]3O[C@H](CO)[C@@H](O)[C@H](O)[C@H]3O)[C@H](O)[C@H]2O)cc1` [pNP-β-D-cellobioside], the Km was 1210 µM.
